Measurements taken from publication PMC10619133, “The catechol moiety of obafluorin is essential for antibacterial activity” (RSC Chemical Biology, 2023).
≈ marks a conversion by molar mass, not a printed value. Read-outs that look alike come from different tables or passages of the source.

What was measured:
E. coli BW25113 = experiment: Spot-on-lawn MIC bioassay; assay type: cell-based; settings: for MIC: Escherichia coli
Experimental: (§1) Indicator strains were grown for 16–18 h in LB (5 mL) by inoculation from a single colony. An aliquot of the resulting culture (500 μL) was then used to inoculate LB (50 mL in 250 mL Erlenmeyer flasks), followed by orbital shaking at 250 rpm until they reached an OD600 of 0.3–0.4. These cultures were then diluted 1 : 10 with molten soft nutrient agar (SNA), before pouring into appropriately sized Petri dishes to set. Serial dilutions of the test compounds (from 256 μg mL^−1 to 1 μg mL^−1 plus an additional sample at 1000 μg mL^−1) were prepared in acetonitrile (ACN), and 4 μL of each sample was applied directly onto the SNA surface. Kanamycin (50 μg mL^−1), apramycin (50 μg mL^−1) or aureobasidin A (0.2 μg mL^−1) were used as positive controls, as appropriate, and ACN or water (4 μL) were used as negative controls. […] Experiments were carried out in at least triplicate for each strain.
(§2) The method was the same as for the antibacterial MIC assays described above, with the following modifications: for excess iron, Fe(NO3)3·9H2O stock (400 mM) was added to give a final concentration of 1.5 or 2.0 mM; for iron depletion, bipy stock (1 M) was added to give a final concentration of 150 μM. For MRSA, 1 was further diluted to 0.5 0.25 and 0.125 μg mL^−1 due to a decrease in MIC under excess iron conditions. The general effect of excess iron on the activity of alternative antibiotics was determined by performing a similar serial dilution of carbenicillin, kanamycin, streptomycin, nitrofurantoin and chloramphenicol in the presence of Fe^3+.

P. aeruginosa PA01 = experiment: Spot-on-lawn MIC bioassay; assay type: cell-based; settings: for MIC: Pseudomonas aeruginosa
Experimental: as §1, §2

EcThrRS = target: T1, EcThrRS (Escherichia coli, UniProt P0A8M3); experiment: Aminoacylation assay; assay type: biochemical, E. coli; settings: enzyme 10 nM
T1 construct: His6 (N); made in house; host or cells: E. coli NiCo21(DE3)
T1 sequence (P0A8M3 whole entry): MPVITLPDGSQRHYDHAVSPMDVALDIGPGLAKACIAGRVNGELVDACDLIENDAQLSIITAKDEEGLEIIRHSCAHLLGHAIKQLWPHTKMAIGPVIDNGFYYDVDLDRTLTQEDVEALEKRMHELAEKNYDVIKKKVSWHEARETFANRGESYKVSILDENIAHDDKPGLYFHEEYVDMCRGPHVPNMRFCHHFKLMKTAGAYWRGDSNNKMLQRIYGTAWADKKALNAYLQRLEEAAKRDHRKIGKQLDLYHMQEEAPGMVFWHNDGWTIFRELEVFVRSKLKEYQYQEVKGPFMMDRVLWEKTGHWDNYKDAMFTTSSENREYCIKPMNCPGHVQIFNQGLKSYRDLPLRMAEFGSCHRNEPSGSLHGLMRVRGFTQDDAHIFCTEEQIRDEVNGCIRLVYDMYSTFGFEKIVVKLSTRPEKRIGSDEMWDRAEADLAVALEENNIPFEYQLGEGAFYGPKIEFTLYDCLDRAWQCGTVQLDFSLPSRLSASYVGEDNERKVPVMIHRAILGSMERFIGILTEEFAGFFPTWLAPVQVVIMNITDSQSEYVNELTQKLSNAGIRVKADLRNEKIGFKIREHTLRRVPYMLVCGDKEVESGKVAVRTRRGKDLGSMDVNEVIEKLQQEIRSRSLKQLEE
Experimental: To measure the effects of 1–4 on ThrRS canonical tRNA charging activity, an assay modified from that reported by Ruan et al.[53] was used, where active enzyme was incubated with its necessary substrates and its activity measured using ^14C labeled Thr and a liquid scintillation counter. Purified ThrRS protein (10 nM) was pre-incubated with varying concentrations of compounds 1–4 or ACN for 10 min. After pre-incubation, ThrRS samples were added to a master reaction mixture with the final component concentrations of HEPES (100 mM, pH 7.0), ATP (4 mM), MgCl2 (10 mM), L-[U-^14C]threonine (50 μM, Moravek Inc.), and tRNA^Thr (5 μM). This mixture was incubated at room temperature for 10 min, with samples taken at 1, 2.5, 5, and 10 min. At each time point, a 7 μL aliquot was spotted onto a 5% trichloroacetic acid (TCA) presoaked 3 MM Whatman paper (Cytiva) squares (repeated in triplicate). After allowing the spots to dry, the Whatman paper was washed three times with 5% TCA, and once with 95% EtOH. The Whatman paper was dried and the counts on each square of paper analyzed using a Tri-Carb 2910 TR liquid scintillation counter using Hydrofluor Liquid Scintillation Fluid (National Diagnostics). To calculate IC50 values, fractional initial velocities (velocity of inhibited reaction/velocity in the absence of inhibitor) were plotted against the log of 1 concentration and then fitted to eqn (1), using GraphPad Prism.1 [drawing 1]

E. coli 25922 = experiment: Spot-on-lawn MIC bioassay; assay type: cell-based, E. coli ATCC 25922
Experimental: as §1, §2

[1] = Hydrolysis of the β-lactone in HEPES buffer monitored by HPLC; assay type: physicochemical; settings: for hydrolysis of β-lactone (in words): 30 min, no Fe^3+
Experimental: Hydrolysis of 1–4 was analysed on an Agilent 1290 system fitted with an Agilent LC/MSD MS spectrometer. A Kinetex XB-C18, 100 × 4.6 mm, 5 μM column (Phenomenex) was used with a gradient elution: ACN/0.1% (v/v) FA (H2O) gradient from 5/95 for 0–0.5 min, 5/95 to 98/2 0.5–12 min, 98/2 for 12–13 min, gradient to 5/95 13–13.5 min and 5/95 for 13.5–15 min. The flow rate was 0.6 mL min^−1 and the injection volume of each sample 5 μL. DAD signals were analysed at 270 nm, with a bandwidth of 4 nm. MS were recorded in positive mode using an atmospheric pressure ionisation electrospray (API-ES) ion source with a capillary voltage of 3000 V. The drying gas temperature was 350 °C with a flow rate of 12 L min^−1. The scan parameters were: mass range = 200–1500; fragmentor = 70; gain EMV = 1.0; threshold = 150; step-size = 0.10. Data were analysed with Agilent ChemStation software.
Five solutions of HEPES buffer (111 mM) were prepared at pH 6.0, 6.5, 7.0, 7.5 and 8.0 respectively. A further five solution of HEPES buffer (111 mM) with Fe(NO3)3.9H2O ([…]) were also prepared at pH 6.0, 6.5, 7.0, 7.5, 8.0 respectively. Stock solutions of 1–4 (10 mM) were prepared in DMSO. For each hydrolysis experiment, stock solution of 1–4 (10 μL) was added the HEPES buffer (90 μL) or the HEPES + Fe(NO3)3.9H2O buffer (90 μL), to give final concentrations of HEPES (100 mM), 1–4 (1 mM) and Fe^3+ (0 or 1 mM). The reaction mixtures were shaken using a bench top vortex and left to stand for 30 min, after which the samples were analysed by HPLC using the Analytical HPLC method. All stock solutions of 1–4 were tested at every pH, with and without Fe^3+ and all experiments were repeated in triplicate.

E. coli BW25113 Δ3 = experiment: Spot-on-lawn MIC bioassay, TBDT knock-out mutant; assay type: cell-based; settings: for MIC: Escherichia coli
Experimental: as §1, §2

E. coli BW25113 Δ6 = experiment: Spot-on-lawn MIC bioassay, TBDT knock-out mutant; assay type: cell-based; settings: for MIC: Escherichia coli
Experimental: as §1, §2

B. subtilis = experiment: Spot-on-lawn MIC bioassay; assay type: cell-based, B. subtilis EC 1524; settings: Bacillus subtilis, standard conditions, read-out: MIC
Experimental: as §1

[2] = BW25113, iron depleted, +bipy (150 μM)
[3] = with vs without Fe^3+ in growth agar
[4] = BW25113, iron replete, +Fe^3+ (2 mM)

For `O=C(N[C@@H]1C(=O)O[C@@H]1Cc1ccc([N+](=O)[O-])cc1)c1cccc(O)c1O` [compound 1, Obafluorin], the MIC (E. coli BW25113; [2]) was 256 µg/mL (≈ 714 µM), the MIC (E. coli BW25113; BW25113, iron replete, +Fe^3+ (2 mM), read-out: MIC) was no more than 1 µg/mL and the MIC (E. coli BW25113; BW25113, standard conditions) was 256 µg/mL (≈ 714 µM). For the same compound, the “decrease in MIC upon addition of Fe^3+” value (E. coli BW25113; with vs without Fe^3+) was no less than 256 fold, the MIC (P. aeruginosa PA01; PA01, +Fe^3+ (1.5 mM) in the media) was no more than 1 µg/mL and the MIC (P. aeruginosa PA01; PA01, spot-on-lawn, standard conditions) was 128 µg/mL (≈ 357 µM). The “decrease in MIC with added Fe^3+” value (P. aeruginosa PA01; [3]) was no less than 128 fold, the “concentration at which complete inhibition was observed” value (EcThrRS) was “around 100 nM” and the IC50 (EcThrRS; 10 min preincubation with compound, read-out: IC50) was 35 ± 4 nM. For the same compound, the MIC (E. coli 25922; Escherichia coli, 25922, iron depleted, +bipy (150 μM)) was 256 µg/mL (≈ 714 µM), the MIC (E. coli 25922; Escherichia coli, 25922, +Fe^3+ (2 mM) in the media, read-out: MIC) was no more than 1 µg/mL and the MIC (E. coli 25922; Escherichia coli, 25922, spot-on-lawn, standard conditions) was 256 µg/mL (≈ 714 µM). The “decrease in MIC with added Fe^3+” value (E. coli 25922; [3]) was no less than 256 fold, the “effect of added Fe^3+ on hydrolysis (in words)” value ([1]; Fe^3+ 1 mM, HEPES 100 mM, pH 6.0–8.0, 30 min) was “protected 1 against hydrolysis at all pH values” and the “hydrolysis of β-lactone (in words)” value ([1]; pH 6.0, HEPES 100 mM) was “little change”. For the same compound, the “hydrolysis of β-lactone (in words)” value ([1]; pH 8.0, HEPES 100 mM) was “majority of 1 in the hydrolysed form”, the MIC (E. coli BW25113 Δ3; [2]) was 256 µg/mL (≈ 714 µM) and the MIC (E. coli BW25113 Δ3; [4]) was no more than 1 µg/mL. The MIC (E. coli BW25113 Δ3; BW25113, standard conditions) was 256 µg/mL (≈ 714 µM), the “decrease in MIC upon addition of Fe^3+” value (E. coli BW25113 Δ3; with vs without Fe^3+) was no less than 256 fold and the MIC (E. coli BW25113 Δ6; [4]) was no more than 1 µg/mL. For the same compound, the MIC (E. coli BW25113 Δ6; BW25113, standard conditions) was 256 µg/mL (≈ 714 µM), the “decrease in MIC upon addition of Fe^3+” value (E. coli BW25113 Δ6; with vs without Fe^3+) was no less than 256 fold and the MIC (B. subtilis) was 4 µg/mL (≈ 11.2 µM).
